# In patent US20250032580A1, “USE OF ADNF POLYPEPTIDES IN THERAPY” (RAMOT AT TEL-AVIV UNIVERSITY LTD., priority 2021, published 2025):
# Key:
# Tyr mice [1] = experiment: Developmental milestone assessment of Tyr mouse pups; format: in vivo; parameters: key to NAP efficacy: global developmental delays: corrections by NAP treatment (+)
# Procedure: (§1) Animals—Animals were housed under a 12-hour light/dark cycle, with food and water ad-libitum. Mouse pups were subcutaneously administrated with NAP [having an amino acid sequence NAPVSIPQ (SEQ ID NO: 2), 25 μg NAP/1 ml saline] as described (8, 12). At 21 days of age mice were administered daily intranasal NAP in vehicle solution (“DD”—7.5 mg/ml of NaCl, 1.7 mg/ml of citric acid, 3 mg/ml of disodium phosphate dihydrate, and 0.2 mg/ml of 50% benzalkonium chloride solution) (0.5 μg NAP/5p1 DD) (8, 9, 12, and U.S. Pat. No. 10,912,819 to Gozes). These mice continued to behavioral analysis as described hereinbelow. The noninvasive intranasal route was chosen as these experiments required daily handling and administration. Age (weeks) of mice during behavioral experiments (mean±SEM) was as follows: Catwalk-9.23±0.15, grooming-10±0.15, social approach-10.5±0.12, odor-discrimination-12.12±0.13, hanging-wire-13±0.14, hotplate-13.18±0.13. Group size was determined following previous experiments (12). Pups were randomly allocated to either the NAP or DD group according to sex and genotype. All procedures involving animals were conducted under the supervision and approval of the institutional animal care and use committee of Tel Aviv University and the Israeli Ministry of Health.
# Developmental milestone assessment and fostering—This experiment included animals from 16 litters in 2 experimental batches. It was performed as previously described (12) with slight modifications. Experimenters were blinded to sex and genotype during experimental procedures. Sexes were grouped if no statistically significant sex differences were discovered.
# Developmental milestone assessment: At p1 Tyr pups were tattooed and genotyped for the presence of the Tyr718 mutation and SRY as described above. The same day pups were randomized to either NAP or Saline treatment groups according to genotype and sex results and developmental milestone assessment was performed from p1 to p21. As animal randomization ended up with unequal male/female ratios for certain groups and no statistical differences were found between the sexes in any of the 4 treatment groups (T test), the sexes could not be separated, [That is except for eye opening, where a significant difference was observed between the sexes in the Tyr group (P=0.047, no significance in the other three treatment groups)]. Pup paws were tattooed using a 31-gauge needle and tattoo ink (Ketchum Manufacturing Co., catalog 329AA) for identification on P1 and, until P21, underwent daily measurements for length and weight and observation for eye opening. Pups were injected daily with NAP, 1 hour prior to the tests as previously described^1.
# Briefly, for ear twitch reflex, a cotton tip was gently brushed against the tip of the ear three times, between postnatal days 7-15 or until the pup responded correctly for two consecutive days. For air righting reflex, the pup was held up-side down and released ˜10.5 cm above the cage, containing 5 cm of shavings. The test was performed between postnatal days 8-21 or until the pup landed on the shavings with all four paws, for two consecutive days. For surface righting reflex, pups were placed on their backs on a level surface, the test was performed between postnatal days 1-13 until the pups was able to right itself with all four paws on the surface in under a second for two consecutive days. For eye opening, mice were observed daily until both eyes were open (eyelids separated completely). For auditory startle, the pup was placed on a level surface and the experimenter clapped loudly twice until a visible startle response was evident for 2 consecutive days. The test was performed between days 7-18. For cliff aversion, pups were placed on the edge of a small box (approx. 4 cm in height) with both paws protruding over the edge of the box. Pups were allowed 30 sec to avoid the cliff and move themselves backwards. […]
# Tyr mice [2] = experiment: RNA seq of mouse spleens; format: in vivo; parameters: key to NAP efficacy: gene expression patterns: corrections by NAP treatment (+)
# Procedure: RNA seq—Total RNA was extracted from 14-week-old mouse spleens and sequenced using standard methods on NextSeq500 system (Illumina) as detailed. Data were analyzed as previously described (9).
# [3] = tested on: SHANK3 mouse model (InsG3680 mutation); experiment: Social recognition test; format: in vivo; settings: NAP-treated SHANK3 mouse model
# Procedure: To this end, mice with the ASD-linked InsG3680 mutation were used. Two behavioral assessments were performed on make mice: • 1) Open field behavior attesting to anxiety and depression (Open field behavioral assessment technology was previously described, e.g.); and • 2) Social recognition behavior, related to autistic traits (the social recognition test was previously described, e.g..
# In the social recognition test, the results measured both time exploring and frequency exploring the mouse or cup, either directly or in the chamber where the mouse or cup only are present (FIG. 13).
# Tyr mice [4] = experiment: CatWalk gait analysis; format: in vivo, mouse; parameters: key to NAP efficacy: motor impediments: corrections by NAP treatment (+)
# Procedure: as §1
# Catwalk—Was performed as previously described (12).
# CatWalk: Briefly, The CatWalk XT (Noldus Inc. Leesburg, VA) was used to analyze the gait of unforced, moving mice^10 Mice had to cross the runway of the CatWalk XT apparatus in a consistent manner, and a successful run was defined when an animal ran the track without any interruption or hesitation. Every mouse was tested until 3 successful runs were achieved.
# Base of support is the average width between either the front paws or the hind paws. Swing (sec) or swing phase is the duration in seconds of no contact of a paw with the glass plate. Swing Speed is the speed (Distance Unit/second) of the paw during Swing. Max Contact Max Intensity is the maximum Intensity at Max Contact of a paw. Intensity ranges from 0 to 255 in arbitrary units. The intensity of a print depends on the degree of contact between a paw and the glass plate and increases with increasing weight. Therefore, Intensity is a measure of weight put on the glass plate.
# The Intensity parameter is used to assess the effects of neuropathic pain, including mechanical allodynia. Max Contact Mean Intensity is the mean Intensity of a paw at Max Contact. Print length is the length (horizontal direction) of the complete print. The complete print is the sum of all contacts with the glass plate, as if the animal's paw would have been inked. Print width is the width (vertical direction) of the complete paw. Print area is the surface area of the complete print. Max Intensity is the maximum Intensity of the complete paw. Mean intensity is the mean Intensity of the complete paw.
# [5] = Tyr mouse, first symbol of cell
structure (smiles),measurement,setting,value
"CC[C@H](C)[C@H](NC(=O)[C@H](CO)NC(=O)[C@@H](NC(=O)[C@@H]1CCCN1C(=O)[C@H](C)NC(=O)[C@@H](N)CC(N)=O)C(C)C)C(=O)N1CCC[C@H]1C(=O)N[C@@H](CCC(N)=O)C(=O)O [NAP, NAPVSIPQ]",Rooting reflex,"Tyr mice [1]; Tyr mice, data not shown",induced rooting
same,NAP efficacy: global developmental delays,Tyr mice [1]; [5],+/+
same,"Surface-righting, first day of acquisition","Tyr mice [1]; Tyr pups, daily s.c. NAP, WT 8.69±0.42, Tyr 10.14±0.36, mean±SEM",8.81±0.33
same,"Air-righting, first day of acquisition","Tyr mice [1]; Tyr pups, daily s.c. NAP, WT 12.96±0.28, Tyr 15.29±0.15, mean±SEM",14.63±0.38
same,Body weight,"Tyr mice [1]; WT female mice, data not shown",no effect
same,Eye opening,"Tyr mice [1]; WT females, data not shown",no NAP effect
same,Developmental milestones in WT littermates,"Tyr mice [1]; WT littermates, data not shown",no effect on WT littermates except for the cliff aversion response
same,Body weight,"Tyr mice [1]; female Tyr pups, P1-P21",beneficial effect was visible from P10 and reached significance at P20-21
same,Eye opening (day),"Tyr mice [1]; female Tyr pups, Tyr 16±0.37, WT 14.93±0.43",14.78±0.46
same,Eye opening,"Tyr mice [1]; males, data not shown",No genotype/NAP effect
same,Genotype/NAP effect on splenic gene expression,"Tyr mice [2]; Tyr mice, males vs females","very minor genotype/NAP effect on males, and a more comprehensive effect on females"
same,NAP efficacy: gene expression patterns,Tyr mice [2]; [5],+/+
same,"Number of RNA transcripts affected by the Tyr Adnp mutation, corrected by NAP treatment",Tyr mice [2]; female spleens,89
same,"Number of RNA transcripts affected by the Tyr Adnp mutation, corrected by NAP treatment",Tyr mice [2]; male spleens,13
same,"Social recognition, mouse vs cup exploration",[3],normalization of behavior
same,Front base of support,"Tyr mice [4]; Tyr mice, males and females",NAP correcting this phenotype in males
same,NAP efficacy: motor impediments,"Tyr mice [4]; Tyr mouse (gait), first symbol of cell",+/(gait)+
same,Gait parameters,"Tyr mice [4]; WT mice, data not shown",No major NAP effect
same,Intensity parameters (gait),Tyr mice [4]; female Tyr mice,significant NAP correction
same,Swing speed and swing duration,Tyr mice [4]; female Tyr mice,ameliorated by NAP
same,Print width,"Tyr mice [4]; female Tyr mice, FIG. 1F",significant NAP correction effect
same,Print length and area,"Tyr mice [4]; male Tyr mice, daily intranasal NAP",significant NAP recovery
